In US9296749B2, “Crystalline cis-(E)-4-(3-fluorophenyl)-2′,3′,4′,9′-tetrahydro-N,N-dimethyl-2′-(1-oxo-3-phenyl-2-propenyl)-spiro[cyclohexane-1,1′[1H]” (priority 2013, dated 2016):

Experiments:
Format in all cases: physicochemical
[1] = Chemical stability of crystalline forms, open-vial storage (content by HPLC, crystalline form by XRPD)
Description: Samples of compound 1 in different crystalline forms were stored in open vials under controlled conditions at different temperatures and rel. humidities for 28 days. Prior to storage and after 14 and 28 days the content of compound (1) in the sample was determined via HPLC and the crystalline form was measured via XRPD.

[2] = Dynamic vapor sorption (DVS), hygroscopicity
Description: Crystalline forms were characterized by dynamic vapor sorption (DVS) using a Porotec DVS 1000 or a SMS DVS Intrinsic water vapor sorption analyzer. For the DVS analysis, a step width of 10% r.h. was applied allowing the samples to equilibrate and reach weight constancy (±0.002%) for at least 10 min on each step. All measurements were performed according to the following program: 50% r.h.→90% r.h., 90→0% r.h., 0%→90% r.h., 90%→50% r.h. A cycle with increasing humidity is also known as a sorption cycle, a cycle with decreasing humidity is also known as a desorption cycle. The details of the respective DVS measurements are shown below in table 51 and discussed further below.
The hygroscopicity of the respective crystalline forms determined via the DVS measurements was classified according to the ranges for mass increase defined in the European Pharmacopoeia: very hygroscopic (vh): increase of the mass ≧15%; hygroscopic (h): increase of the mass is less than 15% and equal or greater than 2%; slightly hygroscopic (sh): increase of the mass is less than 2% and equal or greater than 0.2%; not hygroscopic (nh): increase of the mass is less than 0.2%; deliquescent (d): sufficient water is absorbed to form a liquid.

[3] = Chemical stability in pharmaceutical compositions (excipient mixtures with 10% compound (1)); conditions: listed as B
Description: To test the chemical stability, i.e. compatibility of different crystalline forms of compound (1), solid multi component mixtures were prepared comprising well established excipients used for solid oral dosage form and having different functions therein. The single components of each mixture were exactly weighed and intensively triturated using a mortar and a pestle.
10 g of the final mixtures were separately filled into glass vials (open or closed) and stored under the conditions outlined below in table 13. Samples were taken and analyzed initially and after 1, 2 and 3 months with respect to the content of compound (1) within the mixtures.

[4] = Stability of crystalline form B on drying at reduced pressure; conditions: dried at 50±2° C., about 7 mBar, 72 hours
Description: The samples were let to cool to room temperature under ambient conditions before they were analyzed.

[5] = Storage of crystalline form C, X-ray diffraction; conditions: stored for up to 4 months

For `CN(C)[C@]1(c2cccc(F)c2)CC[C@]2(CC1)c1[nH]c3ccccc3c1CCN2C(=O)/C=C/c1ccccc1` [crystalline form B, cis-(E)-4-(3-Fluorophenyl)-2′,3′,4′,9′-tetrahydro-N,N-dimethyl-2′-(1-oxo-3-phenyl-2-propenyl)-spiro[cyclohexane-1,1′[1H]-pyrido[3,4-b]indol]-4-amine], the “Content cmpd (1)” value ([1]; 40° C., 75% r.H., storage 0 d, listed as B) was 84.85%, the “Content cmpd (1)” value ([1]; 40° C., 75% r.H., storage 14 d, listed as B) was 84.21% and the “Content cmpd (1)” value ([1]; 40° C., 75% r.H., storage 28 d, listed as B) was 83.74%. The “Content cmpd (1)” value ([1]; 50° C., storage 0 d, listed as B) was 84.85%, the “Content cmpd (1)” value ([1]; 50° C., storage 14 d, listed as B) was 82.63% and the “Content cmpd (1)” value ([1]; 50° C., storage 28 d, listed as B) was 81.26%. The hysteresis ([2]; between 10% to 40% relative humidity) was > 0.5%, the “content of compound (1) within the mixture” value (from here on “content of compound”) ([3]; Lactose monohydrate, PVP25, Crospovidone, Talcum, 40° C., 75% rel. hum., 0 month) was 99.57 and the “content of compound” value ([3]; Lactose monohydrate, PVP25, Crospovidone, Talcum, 40° C., 75% rel. hum., 1 month) was 99.22. For the same compound, the “content of compound” value ([3]; Lactose monohydrate, PVP25, Crospovidone, Talcum, 40° C., 75% rel. hum., 2 months) was 99.05, the “content of compound” value ([3]; Lactose monohydrate, PVP25, Crospovidone, Talcum, 40° C., 75% rel. hum., 3 months) was 96.87 and the “content of compound” value ([3]; Lactose monohydrate, PVP25, Crospovidone, Talcum, 50° C. dry, 0 month) was 99.57. For the same compound, the “content of compound” value ([3]; Lactose monohydrate, PVP25, Crospovidone, Talcum, 50° C. dry, 1 month) was 95.82, the “content of compound” value ([3]; Lactose monohydrate, PVP25, Crospovidone, Talcum, 50° C. dry, 2 months) was 91.04 and the “content of compound” value ([3]; Lactose monohydrate, PVP25, Crospovidone, Talcum, 50° C. dry, 3 months) was 85.33. For the same compound, the “content of compound” value ([3]; Microcrystalline cellulose, HPMC 6 mPas, L-HPC LH21, magnesium stearate, 40° C., 75% rel. hum., 0 month) was 99.69, the “content of compound” value ([3]; Microcrystalline cellulose, HPMC 6 mPas, L-HPC LH21, magnesium stearate, 40° C., 75% rel. hum., 1 month) was 99.53 and the “content of compound” value ([3]; Microcrystalline cellulose, HPMC 6 mPas, L-HPC LH21, magnesium stearate, 40° C., 75% rel. hum., 2 months) was 98.57. The “content of compound” value ([3]; Microcrystalline cellulose, HPMC 6 mPas, L-HPC LH21, magnesium stearate, 40° C., 75% rel. hum., 3 months) was 99.39, the “content of compound” value ([3]; Microcrystalline cellulose, HPMC 6 mPas, L-HPC LH21, magnesium stearate, 50° C. dry, 0 month) was 99.75 and the “content of compound” value ([3]; Microcrystalline cellulose, HPMC 6 mPas, L-HPC LH21, magnesium stearate, 50° C. dry, 1 month) was 95.74. For the same compound, the “content of compound” value ([3]; Microcrystalline cellulose, HPMC 6 mPas, L-HPC LH21, magnesium stearate, 50° C. dry, 2 months) was 91.45, the “content of compound” value ([3]; Microcrystalline cellulose, HPMC 6 mPas, L-HPC LH21, magnesium stearate, 50° C. dry, 3 months) was 87.34 and the resulting crystalline form [4] was “crystalline form B”.
For `CN(C)[C@]1(c2cccc(F)c2)CC[C@]2(CC1)c1[nH]c3ccccc3c1CCN2C(=O)/C=C/c1ccccc1` [crystalline form C, cis-(E)-4-(3-Fluorophenyl)-2′,3′,4′,9′-tetrahydro-N,N-dimethyl-2′-(1-oxo-3-phenyl-2-propenyl)-spiro[cyclohexane-1,1′[1H]-pyrido[3,4-b]indol]-4-amine], the “Content cmpd (1)” value ([1]; 40° C., 75% r.H., storage 0 d, listed as C) was 99.67%, the “Content cmpd (1)” value ([1]; 40° C., 75% r.H., storage 14 d, listed as C) was 99.68% and the “Content cmpd (1)” value ([1]; 40° C., 75% r.H., storage 28 d, listed as C) was 99.44%. For the same compound, the “Content cmpd (1)” value ([1]; 50° C., storage 0 d, listed as C) was 99.67%, the “Content cmpd (1)” value ([1]; 50° C., storage 14 d, listed as C) was 99.57% and the “Content cmpd (1)” value ([1]; 50° C., storage 28 d, listed as C) was 99.20%. For the same compound, the weight loss ([2]; desorption cycle from 90 to 0% r.h.) was “about 6.6%”, the change in mass ([2]; sorption cycle from 50% to 90% relative humidity) was “no major change in mass” and the “weight gain at 90%” value ([2]; subsequent sorption cycle) was “about 2.8%”. For the same compound, the conversion on storage [5] was “converted to Polymorph I in three to four months”.
